What follows are molecules tested against human IDO1 (Homo sapiens, UniProt P14902) (assay: Human IDO-1 inhibitory activity in Hela cells (interferon-gamma stimulated)). Conditions: 18 hours, unstimulated wells = 100% inhibition.
Assay type: cell-based
Design: endogenous in cells; host or cells: HeLa cells stimulated with interferon-gamma
Description: HeLa cells were seeded at 20,000 cells per 30 μL per well with RPMI/phenol red free media containing 10% FBS in a 384-well tissue culture plate (black with clear bottoms). 50 nL of compound was added to cells and incubated at 37° C. for one hour. 20 μL of the recombinant human Interferon-gamma (R&D System, Cat. #285-IF, at final concentration of 10 ng/ml) or recombinant murine Interferon-gamma (PEPROTECH® Inc., Cat. #315-05, final concentration of 5 ng/ml) was added to activate IDO signaling. The cells were incubated for 18 hours in 37° C. incubator with 5% CO2.
Compound treatment was stopped by adding 5 μl trichloroacetic acid to a final concentration of 3%. Subsequently, the cell plate was further incubated at 50° C. for 30 minute. An equal volume supernatant (20 μL) and 2% (w/v) Ehrlich reagent (4-dimethylaminobenzaldehyde) in glacial acetic acid were mixed in a new clear bottom 384-well plate. This plate was incubated at room temperature for 30 minutes. Absorbance at 490 nm was measured on Envision plate reader.
Compound IC50 values were calculated using counts from unstimulated (no INF-gamma treatment) wells as 100% inhibition. INF-gamma treatment without compound treatment as 0% inhibition.

Sequence of human IDO1 (P14902 whole entry): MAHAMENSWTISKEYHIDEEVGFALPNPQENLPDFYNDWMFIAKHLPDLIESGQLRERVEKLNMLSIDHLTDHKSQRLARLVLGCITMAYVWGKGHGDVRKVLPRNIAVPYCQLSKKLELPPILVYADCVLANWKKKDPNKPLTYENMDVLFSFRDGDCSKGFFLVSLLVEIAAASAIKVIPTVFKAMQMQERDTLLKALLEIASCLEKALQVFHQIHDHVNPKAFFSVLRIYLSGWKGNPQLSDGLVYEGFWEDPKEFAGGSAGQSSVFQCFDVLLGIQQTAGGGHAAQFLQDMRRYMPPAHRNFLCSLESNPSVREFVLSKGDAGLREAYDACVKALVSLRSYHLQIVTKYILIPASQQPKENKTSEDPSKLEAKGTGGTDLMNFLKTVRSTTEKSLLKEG

With “3-(4-((1,1-dioxido- tetrahydro-2H- thiopyran-4-yl) (ethyl)amino)-3- ((4-fluorophenyl) amino)phenyl)-4- isopropoxy- butanoic acid [Example 341]” as the molecule, how does the IC50 read?
Its IC50 is greater than 50 nM.

How did the IC50 turn out when “3-(4-((1,1-dioxidotetrahydro-2H- thiopyran-4-yl)(ethyl)amino)-3- ((4-fluorophenyl)amino)phenyl)-4- isopropoxybutanoic acid [Example 345]” was run?
The IC50 was greater than 50 nM.

With `CCN(c1ccc(C(COC)CC(=O)O)cc1Nc1ccc(C#N)cc1)C1CCCOC1` (single isomer, unassigned) [264 E1] as the molecule, how does the IC50 read?
Its IC50 is less than 50 nM.

`CCN(c1ccc(C(COC)CC(=O)O)cc1Nc1ccc(C#N)cc1)C1CCCOC1` (single isomer, unassigned) [264 E2] was tested. Which IC50 did it give?
The IC50 was less than 5 nM.

`CCN(c1ccc(C(COC)CC(=O)O)cc1Nc1ccc(C#N)cc1)C1CCCOC1` (single isomer, unassigned) [265 E1] was tested. Which IC50 did it give?
Its IC50 is less than 5 nM.

For `CCN(c1ccc(C(COC)CC(=O)O)cc1Nc1ccc(C#N)cc1)C1CCCOC1` (single isomer, unassigned) [265 E2], which IC50 is on record?
The IC50 was less than 5 nM.

With `CCN(c1ccc(C(COC)CC(=O)O)cc1Nc1cnc(OC)nc1)C1CCS(=O)(=O)CC1` (single isomer, unassigned) [Example 168 Enantiomer 1, 3-(4-((1,1-Dioxidotetrahydro-2H-thiopyran-4-yl)(ethyl)amino)-3-((2-methoxypyrimidin-5-yl)amino)phenyl)-4-methoxybutanoic Acid] as the molecule, how does the IC50 read?
The IC50 was greater than 50 nM.

With `CCN(c1ccc(C(COC)CC(=O)O)cc1Nc1cnc(OC)nc1)C1CCS(=O)(=O)CC1` (single isomer, unassigned) [Example 168 Enantiomer 2, 3-(4-((1,1-Dioxidotetrahydro-2H-thiopyran-4-yl)(ethyl)amino)-3-((2-methoxypyrimidin-5-yl)amino)phenyl)-4-methoxybutanoic Acid] as the molecule, how does the IC50 read?
Its IC50 is greater than 50 nM.

For `CCOc1ncc(Nc2cc(C(COC)CC(=O)O)ccc2N(CC)C2CCS(=O)(=O)CC2)cn1` (single isomer, unassigned) [Example 175, 3-(4-((1,1-dioxidotetrahydro-2H-thiopyran-4-yl)(ethyl)amino)-3-((2-ethoxypyrimidin-5-yl)amino)phenyl)-4-methoxybutanoic acid], which IC50 is on record?
Its IC50 is greater than 50 nM.

Which IC50 does the source give for `CCCN(c1ccc(C(COC)CC(=O)O)cc1Nc1ccc(C#N)cc1)C1CCS(=O)(=O)CC1` (single isomer, unassigned) [Example 182 Enantiomer 1, 3-(3-((4-Cyanophenyl)amino)-4-((1,1-dioxidotetrahydro-2H-thiopyran-4-yl)(propyl)amino)phenyl)-4-methoxybutanoic Acid] here?
Its IC50 is less than 50 nM.

With `CCCN(c1ccc(C(COC)CC(=O)O)cc1Nc1ccc(C#N)cc1)C1CCS(=O)(=O)CC1` (single isomer, unassigned) [Example 182 Enantiomer 2, 3-(3-((4-Cyanophenyl)amino)-4-((1,1-dioxidotetrahydro-2H-thiopyran-4-yl)(propyl)amino)phenyl)-4-methoxybutanoic Acid] as the molecule, how does the IC50 read?
The IC50 was greater than 50 nM.

With `CCN(c1ccc(C(CC(=O)O)C2CC2)cc1NC(=O)Nc1ccc(C#N)cc1)C1CCS(=O)(=O)CC1` (single isomer, unassigned) [Example 348 E1, 3-(3-(3-(4-Cyanophenyl)ureido)-4-((1,1-dioxidotetrahydro-2H-thiopyran-4-yl)(ethyl)amino)phenyl)-3-cyclopropylpropanoic Acid] as the molecule, how does the IC50 read?
The IC50 was greater than 50 nM.

`CCN(c1ccc(C(CC(=O)O)C2CC2)cc1NC(=O)Nc1ccc(C#N)cc1)C1CCS(=O)(=O)CC1` (single isomer, unassigned) [Example 348 E2, 3-(3-(3-(4-Cyanophenyl)ureido)-4-((1,1-dioxidotetrahydro-2H-thiopyran-4-yl)(ethyl)amino)phenyl)-3-cyclopropylpropanoic Acid] was tested. Which IC50 did it give?
The IC50 was greater than 50 nM.

How did the IC50 turn out when `CCN(c1ccc([C@H](COC)CC(=O)O)cc1Nc1ccc(C#N)cn1)C1CCOCC1` (single isomer, unassigned) [Example 389] was run?
Its IC50 is less than 50 nM.

Which IC50 does the source give for `CCN(c1ccc([C@H](COC)CC(=O)O)cc1Nc1ccc(C#N)c(F)c1)C1CCOCC1` (single isomer, unassigned) [Example 390] here?
Its IC50 is less than 5 nM.

`CCN(c1ccc([C@H](COC)CC(=O)O)cc1Nc1ccc(C#N)cc1F)C1CCOCC1` (single isomer, unassigned) [Example 392] was tested. Which IC50 did it give?
Its IC50 is less than 5 nM.

For `CCN(c1ccc([C@H](COC)CC(=O)O)cc1Nc1ccc(Cl)cn1)C1CCOCC1` (single isomer, unassigned) [Example 393], which IC50 is on record?
The IC50 was less than 50 nM.

How did the IC50 turn out when `CCN(c1ccc([C@H](COC)CC(=O)O)cc1Nc1ncc(Cl)cn1)C1CCOCC1` (single isomer, unassigned) [Example 394] was run?
The IC50 was less than 50 nM.

With `CCN(c1ccc([C@H](COC)CC(=O)O)cc1Nc1ncc(F)cn1)C1CCOCC1` (single isomer, unassigned) [Example 396] as the molecule, how does the IC50 read?
The IC50 was greater than 50 nM.

How did the IC50 turn out when `CCN(c1ccc([C@H](COC)CC(=O)O)cc1Nc1cccc(OC(F)(F)C(F)F)c1)C1CCOCC1` (single isomer, unassigned) [Example 397] was run?
The IC50 was greater than 50 nM.

Which IC50 does the source give for `CCN(c1ccc([C@H](COC)CC(=O)O)cc1Nc1ccc(Cl)cc1F)C1CCOCC1` (single isomer, unassigned) [Example 399] here?
The IC50 was less than 5 nM.

Which IC50 does the source give for `CCN(c1ccc([C@H](COC)CC(=O)O)cc1Nc1ccc(F)cn1)C1CCOCC1` (single isomer, unassigned) [Example 400] here?
Its IC50 is less than 50 nM.

For `CCN(c1ccc([C@H](COC)CC(=O)O)cc1Nc1ccc(F)cc1F)C1CCOCC1` (single isomer, unassigned) [Example 402], which IC50 is on record?
Its IC50 is less than 50 nM.

For `CCN(c1ccc([C@H](COC)CC(=O)O)cc1Nc1ccc(C#N)cc1C)C1CCOCC1` (single isomer, unassigned) [Example 404], which IC50 is on record?
Its IC50 is less than 50 nM.

How did the IC50 turn out when `CCN(c1ccc([C@H](COC)CC(=O)O)cc1Nc1cccc(C#N)c1)C1CCOCC1` (single isomer, unassigned) [Example 405] was run?
The IC50 was greater than 50 nM.

With `CCN(c1ccc([C@H](COC)CC(=O)O)cc1Nc1ccccc1C#N)C1CCOCC1` (single isomer, unassigned) [Example 406] as the molecule, how does the IC50 read?
Its IC50 is greater than 50 nM.

Which IC50 does the source give for `CCOc1cc(Nc2cc([C@H](COC)CC(=O)O)ccc2N(CC)C2CCOCC2)ccc1C#N` (single isomer, unassigned) [Example 407] here?
Its IC50 is less than 50 nM.

For `CCN(c1ccc([C@H](COC)CC(=O)O)cc1Nc1ccc(C#N)c(OCC(F)F)c1)C1CCOCC1` (single isomer, unassigned) [Example 408], which IC50 is on record?
Its IC50 is less than 50 nM.

Which IC50 does the source give for `CCN(c1ccc([C@H](COC)CC(=O)O)cc1Nc1ccc(C#N)c(OCC(F)(F)F)c1)C1CCOCC1` (single isomer, unassigned) [Example 409] here?
The IC50 was less than 50 nM.

How did the IC50 turn out when `CCc1ccc(Nc2cc([C@H](COC)CC(=O)O)ccc2N(CC)C2CCOCC2)cc1` (single isomer, unassigned) [Example 411] was run?
Its IC50 is less than 5 nM.

With `CCN(c1ccc([C@H](COC)CC(=O)O)cc1Nc1ccc(F)cc1)C1CCOCC1` (single isomer, unassigned) [Example 412] as the molecule, how does the IC50 read?
Its IC50 is less than 5 nM.

How did the IC50 turn out when `CCN(c1ccc([C@H](COC)CC(=O)O)cc1Nc1ccc2nc(C)sc2c1)C1CCOCC1` (single isomer, unassigned) [Example 414] was run?
The IC50 was less than 50 nM.

How did the IC50 turn out when `CCN(c1ccc([C@H](COC)CC(=O)O)cc1Nc1ccc2c(c1)OC(F)(F)O2)C1CCOCC1` (single isomer, unassigned) [Example 415] was run?
The IC50 was less than 5 nM.

For `CCN(c1ccc([C@H](COC)CC(=O)O)cc1Nc1ccc(C#N)c(OC)c1)C1CCOCC1` (single isomer, unassigned) [Example 417], which IC50 is on record?
The IC50 was less than 50 nM.

How did the IC50 turn out when `CCN(c1ccc([C@H](COC)CC(=O)O)cc1Nc1ccc(C#N)c(Cl)c1)C1CCOCC1` (single isomer, unassigned) [Example 418] was run?
The IC50 was less than 50 nM.

`CCN(c1ccc([C@H](COC)CC(=O)O)cc1Nc1ccc(C#N)c(C)n1)C1CCOCC1` (single isomer, unassigned) [Example 419] was tested. Which IC50 did it give?
The IC50 was greater than 50 nM.

How did the IC50 turn out when `CCN(c1ccc([C@H](COC)CC(=O)O)cc1Nc1ccc(C#N)c(C(F)(F)F)c1)C1CCOCC1` (single isomer, unassigned) [Example 420] was run?
Its IC50 is greater than 50 nM.

Which IC50 does the source give for `CCN(c1ccc([C@H](COC)CC(=O)O)cc1Nc1ccc(S(=O)(=O)CC)cc1)C1CCOCC1` (single isomer, unassigned) [Example 421] here?
Its IC50 is greater than 50 nM.

Which IC50 does the source give for `COCC(CC(=O)O)c1ccc(N2C[C@@H](C)O[C@@H](C)C2)c(Nc2ccc(Cl)cc2)c1` (single isomer, unassigned) [Example 604] here?
Its IC50 is greater than 50 nM.

How did the IC50 turn out when `COCC(CC(=O)O)c1ccc(N2C[C@@H](C)O[C@@H](C)C2)c(NC(=O)Nc2ccc(C#N)cc2)c1` (single isomer, unassigned) [Example 605 Diastereomer 2] was run?
The IC50 was greater than 50 nM.

`COCC(CC(=O)O)c1ccc(N2C[C@@H](C)O[C@@H](C)C2)c(NC(=O)Nc2ccc(Cl)cc2F)c1` (single isomer, unassigned) [Example 607] was tested. Which IC50 did it give?
Its IC50 is greater than 50 nM.

With `CCC(CC(=O)O)c1ccc(N2CCN(C(=O)OC)CC2)c(Nc2ccc(C#N)cc2)c1` (single isomer, unassigned) [Example 668 Enantiomer 2, 3-(3-((4-Cyanophenyl)amino)-4-(4-(methoxycarbonyl)piperazin-1-yl)phenyl)pentanoic Acid] as the molecule, how does the IC50 read?
The IC50 was greater than 50 nM.

For `CCC(CC(=O)O)c1ccc(N2CCNCC2)c(Nc2ccc(C#N)cc2)c1` (single isomer, unassigned) [Example 671 Enantiomer 2, 3-(3-((4-Cyanophenyl)amino)-4-(piperazin-1-yl)phenyl) pentanoic Acid], which IC50 is on record?
Its IC50 is greater than 50 nM.
